Tests used:
Assay type in all cases: cell-based, human
[1] = system: HCT116N and HCT116O cells; assay: ICP-MS assay for cellular rhodium levels, whole cell lysates; settings: 10 μM; 48 hours; compared to [Rh(bpy)2chrysi]^3+ or [Rh(NH3)4chrysi]^3+
Description: To assay the subcellular localization of the rhodium complexes, an inductively coupled plasma mass spectrometry (ICP-MS) assay was used to quantify the uptake of the complexes in both whole cell extracts and nuclear and mitochondrial fractions.
Each cell line was treated with 10 μM of each rhodium complex as indicated in FIG. 33A (except [Rh(DIP)2(chrysi]^3+ which was administered at 2 μM) for 1, 3, 6, 12, 24, or 48 hours. After rhodium incubation, the cells were harvested from adherent culture by trypsinization, washed with cold PBS, and counted by hemacytometer. The samples were pelleted and resuspended in 1% HNO3 (v/v), homogenized by three freeze/thaw cycles in liquid nitrogen, and analyzed for rhodium content on an HP-4500 ICP-MS unit. Rhodium counts were normalized to the number of cells counted in each sample before lysate preparation. Standard errors for three independent experiments are shown.

HCT116O cells [2] = assay: MTT cytotoxicity assay
Description: Cytotoxicity assays were performed as described in Mosmann, 1983, J. Immunol. Methods, 65, 55-63, the entire contents of which is incorporated herein by reference. HCT116N and HCT116O cells were plated in 96-well plates at 50,000 cells/well and incubated with rhodium for the durations specified. After incubation with the indicated rhodium complexes, cells were labeled with MTT for 4 hours at 37° C. under 5% CO2 and humidified atmosphere. The resulting formazan crystals were dissolved with solubilizing reagent purchased from Roche according to the manufacturer's instructions. The dissolved formazan was quantified as the absorbance at 570 nm minus the background absorbance at 690 nm. Percent viability was determined as the ratio of the amount of formazan in the treated cells to that of the untreated cells.
In order to elucidate the mechanism of action for the cytotoxicity caused by a metalloinsertor complex of Formula I, the MTT cytotoxicity assay was repeated in the absence and presence of the pan-caspase inhibitor Z-VAD-FMK. This inhibitor works by irreversibly binding to the active site of caspases which participate in the apoptotic pathway. […] The HCT116N and HCT116O cell lines were treated with 0-30 μM of the [Rh(HDPA)2chrysi]^3+ complex for 24-72 hours. […]
In order to determine the mechanism of action for cytotoxicity caused by a metalloinsertor complex of Formula I, the MTT cytotoxicity assay was repeated in conjunction with a panel of poly-ADP ribose polymerase (PARP) inhibitors: DPQ, 3-AB, 4-AN, and ABT-888, as described in Costantino et al., 2001, J. Med. Chem., 44, 3786-3794; Purnell et al., 1980, Biochem. J. 185, 775-777; Banasik et al., 1992, J. Biol. Chem. 267, 1569-1575; and Donawho et al., 2007, Clin. Cancer Res., 13, 2728-2737, the entire contents of all of which are incorporated herein by reference. The HCT116N and HCT116O cell lines were treated with 0 or 20 μM of the [Rh(HDPA)2chrysi]^3+ complex for 72 hours, with or without one of the four inhibitors. The inhibitor 3,4-Dihydro-5[4-(1-piperindinyl)butoxy]-1(2H)-isoquinoline (DPQ) was added to a final concentration of 0, 25, or 50 μM; the inhibitor 3-aminobenzamide (3-AB) was added to a final concentration of 0, 2, or 3 mM; the inhibitor 4-amino-1,8-napthalimide (4-AN) was added to a final concentration of 0, 10, or 20 μM; and the inhibitor 2-((R)-2-Methylpyrrolidin-2-yl)-1H-benzimidazole-4-carboxamide (ABT-888) was added to a final concentration of 0, 5, or 10 μM. […] For example, in the case of the compound DPQ, this difference was 43±2.7% without inhibitor and 0.6±3.0% with inhibitor.

HCT116N cells = assay: Cell death mode flow cytometry assay (YO-PRO-1 / PI dye exclusion); settings: 20 μM, 72 hours, untreated 62±0.6%
Text: (§1) To characterize the cell death occurring in response to rhodium treatment, a dye exclusion flow cytometry assay was used as described in Idziorek et al., 1995 J. Immunol. Methods, 185, 249-258, the entire contents of which is incorporated herein by reference. The assay differentiates between live cells, dead cells, and cells undergoing apoptosis or necrosis through concurrent staining with propidium iodide (a dead cell permeable dye) and YO-PRO-1 (an apoptotic cell permeable dye). By plotting the fluorescence of the YO-PRO-1 channel against the PI channel, a pattern emerges. Healthy cells are seen in the lower lefthand corner of the plot in FIGS. 36A-36D. […] Dead cells admit both dyes and are therefore seen in the upper righthand quadrant of the image. Upon flow cytometry analysis, cells can be classified as live, apoptotic, necrotic, or dead by defining regions in the fluorescence plane corresponding to each category.
(§2) The HCT116N and HCT116O cell lines were incubated with 0-25 μM of [Rh(HDPA)2chrysi]^3+ for 24-72 hours. After harvesting the cells and staining with both PI and YO-PRO-1, the cells were analyzed by flow cytometry to obtain raw fluorescence data. Representative data for 20 μM rhodium treatment for 72 hours are shown. YO-PRO-1 fluorescence is shown on the y-axis, and PI fluorescence is shown on the x-axis. The raw data were analyzed by gating the fluorescence events into one of four categories, depending on the fluorescence levels of the two dyes. FIGS. 37A-37B also show histograms of live, apoptotic, necrotic, and dead cells for the HCT116N and HCT116O cell lines based on the flow cytometry. Treatment with the indicated rhodium complex was either 15 or 20 µM [Rh(HDPA)2chrysi]^3+ for 72 hours.
(§3) After 24, 48, or 72 hour incubation with the selected rhodium complex, cells were harvested from adherent culture by trypsinization and washed with cold PBS, and centrifuged at 2,000 rpm for 5 minutes. The resultant pellets were resuspended in PBS to a concentration of 10^6 cells/mL and stained with propidium iodide to a final concentration of 1 μg/mL and with YO-PRO-1 (an apoptotic cell permeable dye) to a final concentration of 200 nM for 30 minutes prior to analysis by flow cytometry.

HCT116O cells [3] = assay: as above; settings: for mode of cell death: YO-PRO-1 and PI, HCT116O versus HCT116N
Text: as §1, §2, §3

## [Rh(HDPA)2chrysi]^3+
[1]
  cellular uptake (rhodium accumulation in whole cell lysates): increase in cellular uptake
HCT116O cells [2]; MTT with or without Z-VAD-FMK
  caspase dependence of the selective cell death: caspase-independent
HCT116O cells [2]; MTT, 20 μM, 72 hours
  number of viable HCT116O cells, % of untreated controls: 37±4.4%
HCT116O cells [2]; MTT, 20 μM, 72 hours, with PARP inhibitor DPQ
  difference between percentage of viable HCT116N cells and percentage of viable HCT116O cells, with DPQ: 0.6±3.0%
HCT116O cells [2]; MTT, 20 μM, 72 hours, without inhibitor
  difference between percentage of viable HCT116N cells and percentage of viable HCT116O cells: 43±2.7%
HCT116O cells [2]; MTT, 30 μM metal complex, 72 hours, with Z-VAD-FMK at 20 M (so in the source)
  cell viability HCT116O with caspase inhibitor: 9.8±7.8%
HCT116O cells [2]; MTT, 30 μM metal complex, 72 hours, without inhibitor
  cell viability HCT116O: 9.7±4.4%
HCT116O cells [2]; MTT, 48 hours
  toxicity in MMR-deficient HCT116O versus HCT116N cells at 48 hours: enhance toxicity in the MMR-deficient HCT116O cells
HCT116O cells [2]; MTT, rhodium alone, control arm of the 40 μM Z-VAD-FMK experiment
  cell viability HCT116O without inhibitor (40 μM caspase inhibitor experiment): 16±10%
HCT116O cells [2]; MTT, rhodium plus Z-VAD-FMK 40 μM
  cell viability HCT116O with caspase inhibitor 40 μM: 28±3.7%
HCT116N cells
  live cells HCT116N after treatment: 54±5.1%
HCT116O cells [3]; 20 μM, 72 hours, untreated 79±3.8%
  live cells HCT116O after treatment: 37±5.3%
HCT116O cells [3]
  mode of cell death: induces necrosis preferentially in the MMR-deficient HCT116O cell line
HCT116O cells [3]; listed as [Rh(HDPA)2chrysi]3^+
  mode of cell death: necrotic rather than apoptotic pathway
HCT116O cells [3]; either cell line
  change in percentage of cells in the apoptotic region: no significant change

Reference: patent US9051345B2, “Metalloinsertor complexes targeted to DNA mismatches” (CALIFORNIA INSTITUTE OF TECHNOLOGY, priority 2011, dated 2015)
